Four molecules from patent publication US8283106B2, “Sulfonic acid salt and derivative thereof, photoacid generator agent, and resist material and pattern formation method using the photoacid generator agent” (Central Glass Company, Limited, priority 2007, dated 2012) can be followed below.

Data set [1] can be described thus: Resist solvent solubility. The data set is classed as physicochemical. The protocol: Using propylene glycol monomethyl ether acetate (PGMEA) as a resist solvent, the solubility of PAG 1 to PAG 6 in the resist solvent was measured.
Data set [2] in a line: Resist compatibility of acid generator with base resin in resist composition. It is filed as physicochemical. Particulars: for Compatibility: acid generator (1.0), PGMEA (400). As to the method: Resist compositions were prepared using the above sulfonic acid onium salts PAG 1 and PAG 2 as acid generators and the following polymers (Resin 1 to 5) as base resins. Resist solutions were obtained by filtering the resist compositions with […] membrane filters, respectively.
Each of the obtained resist solutions was spin-coated on a silicon wafer to form a resist film of 250 nm thickness. The resist film was prebaked at 110° C., exposed to a 248-nm ultraviolet ray through a photomask, and then, subjected to post exposure baking treatment at 120° C. After that, the resist film was developed with a […] aqueous tetramethylammonium hydroxide solution for 1 minute at 23° C.
For comparison purposes, the above sulfonic acid onium salts PAG 3, PAG 4 and PAG 7 were tested for the resist compatibility and resist resolution under the same conditions as to the above working examples.

Read-outs that look alike come from different tables or passages of the source.

`O=C(OCC12CC3CC(CC(C3)C1)C2)C(F)(F)S(=O)(=O)O` [PAG 4, triphenylsulfonium (adamantane-1-yl-methyl)oxycarbonyldifluoromethanesulfonate]: the Solubility in data set [1] was 0.3 parts by weight of PAG dissolved in 100 parts by weigh of PGMEA. In addition, the Compatibility result in data set [2] (Resin 1 (40 pts. wt.)), in data set [2] (Resin 2 (40 pts. wt.)), in data set [2] (Resin 3 (40 pts. wt.)), in data set [2] (Resin 4 (40 pts. wt.)) and in data set [2] (Resin 5 (40 pts. wt.)) was “Good” throughout.
On to `O=C(NC12CC3CC(CC(C3)C1)C2)OCC(F)(F)S(=O)(=O)O` [PAG 2, triphenylsulfonium adamantane-1-yl-carbamic acid-2,2-difluoroethylsulfonate], for which the “resist solvent solubility relative to urethane bond-free sulfonic acid onium salts (PAG 3 to PAG 6)” value in data set [1] (PGMEA) is “twice or more higher”. In addition, in data set [1] (resist solvent propylene glycol monomethyl ether acetate (PGMEA)), the Solubility was 0.7 parts by weight of PAG dissolved in 100 parts by weigh of PGMEA. Further, the Compatibility entry in data set [2] (Resin 1 (40 pts. wt.)), in data set [2] (Resin 2 (40 pts. wt.)), in data set [2] (Resin 3 (40 pts. wt.)), in data set [2] (Resin 4 (40 pts. wt.)) and in data set [2] (Resin 5 (40 pts. wt.)) was “Good” each time. For the same molecule, in data set [2] (summary of TABLES 2 and 3), the “resist compatibility compared with the conventional salts” value was “higher resist compatibility”.
Take “triphenylsulfonium cyclohexyloxycarbonyldifluoromethanesulfonate [PAG 3]”: the Solubility in data set [1] is on record as 0.4 parts by weight of PAG dissolved in 100 parts by weigh of PGMEA. Besides, the Compatibility result in data set [2] (Resin 1 (40 pts. wt.)), in data set [2] (Resin 2 (40 pts. wt.)), in data set [2] (Resin 3 (40 pts. wt.)), in data set [2] (Resin 4 (40 pts. wt.)) and in data set [2] (Resin 5 (40 pts. wt.)) was “Slightly poor” each time.
Take `O=C(OCC(F)(F)S(=O)(=O)O)C12CC3CC(CC(C3)C1)C2` [PAG 6, triphenylsulfonium 2-(1′-adamantane)carbonyloxy-1,1-difluoroethanesulfonate]: the Solubility in data set [1] was 0.2 parts by weight of PAG dissolved in 100 parts by weigh of PGMEA.
